Experimental data as given in ChEMBL document CHEMBL3044741, “Synthesis of novel biologically active methylene derivatives of sydnones” (Med Chem Res, 2013).
Converted amounts (≈) assume the structure as drawn.

Experiments:
[1] = system: Candida albicans; experiment: Antifungal activity against Candida albicans MTCC 227; type: functional
[2] = system: Aspergillus niger; experiment: Antifungal activity against Aspergillus niger MTCC 282 at 250 ug/ml after 74 hrs by Kirby-Bauer method; type: functional; conditions: MTCC 282, 74 h, read-out: IZ
[3] = system: Candida albicans; experiment: Antifungal activity against Candida albicans MTCC 227 at 250 ug/ml after 74 hrs by Kirby-Bauer method; type: functional; conditions: MTCC 227, 74 h, read-out: IZ
[4] = system: Aspergillus clavatus; experiment: Antifungal activity against Aspergillus clavatus MTCC 1323 at 250 ug/ml after 74 hrs by Kirby-Bauer method; type: functional; conditions: MTCC 1323, 74 h, read-out: IZ
[5] = system: Aspergillus niger; experiment: Antifungal activity against Aspergillus niger MTCC 282; type: functional
[6] = system: Aspergillus clavatus; experiment: Antifungal activity against Aspergillus clavatus MTCC 1323; type: functional
[7] = system: Streptococcus pyogenes; experiment: Antibacterial activity against Streptococcus pyogenes MTCC 442 at 250 ug/ml after 24 hrs by Kirby-Bauer method; type: functional; conditions: MTCC 442, 24 h, read-out: IZ
[8] = system: Human alphaherpesvirus 3; experiment: Antiviral activity against Varicella-zoster virus Oka expressing thymidine kinase infected in HEL cells assessed as reduction in plaque formation; type: functional, organism-based; conditions: Human alphaherpesvirus 3, strain Oka vaccine
[9] = system: Escherichia coli; experiment: Antibacterial activity against Escherichia coli MTCC 443 after 24 hrs by broth dilution method; type: functional; conditions: MTCC 443, 24 h
[10] = system: Cytomegalovirus; experiment: Antiviral activity against Cytomegalovirus Davis in HEL cells assessed as reduction in plaque formation; type: functional, organism-based; conditions: Human betaherpesvirus 5, Davis
[11] = system: Pseudomonas aeruginosa; experiment: Antibacterial activity against Pseudomonas aeruginosa MTCC 424 after 24 hrs by broth dilution method; type: functional; conditions: MTCC 424, 24 h
[12] = system: Staphylococcus aureus; experiment: Antibacterial activity against Staphylococcus aureus MTCC 96 after 24 hrs by broth dilution method; type: functional; conditions: MTCC 96, 24 h
[13] = system: Staphylococcus aureus; experiment: Antibacterial activity against Staphylococcus aureus MTCC 96 at 250 ug/ml after 24 hrs by Kirby-Bauer method; type: functional; conditions: MTCC 96, 24 h, read-out: IZ
[14] = Selectivity index, ratio of CC50 for human MT4 cells to IC50 for HIV2 ROD; type: functional
[15] = Cytotoxicity against human HEL cells; type: cell-based
[16] = system: Streptococcus pyogenes; experiment: Antibacterial activity against Streptococcus pyogenes MTCC 442 after 24 hrs by broth dilution method; type: functional; conditions: MTCC 442, 24 h
[17] = system: Cytomegalovirus; experiment: Antiviral activity against Cytomegalovirus AD-169 infected in HEL cells assessed as reduction in plaque formation; type: functional, organism-based; conditions: Human betaherpesvirus 5, AD-169, HEL
[18] = Selectivity index, ratio of CC50 for human MT4 cells to IC50 for HIV1 3B; type: functional
[19] = Cytotoxicity against human MT4 cells by MTT assay; type: cell-based
[20] = system: Escherichia coli; experiment: Antibacterial activity against Escherichia coli MTCC 443 at 250 ug/ml after 24 hrs by Kirby-Bauer method; type: functional; conditions: MTCC 443, 24 h, read-out: IZ
[21] = system: Human alphaherpesvirus 3; experiment: Antiviral activity against thymidine kinase-deficient Varicella-zoster virus infected in HEL cells assessed as reduction in plaque formation; type: functional, organism-based; conditions: Human alphaherpesvirus 3, HEL
[22] = system: Human immunodeficiency virus 1; experiment: Antiviral activity against HIV1 3B infected in MT4 cells assessed as inhibition of virus-induced cytopathogenicity by MTT assay; type: functional, organism-based; conditions: Human immunodeficiency virus 1, 3B
[23] = system: Human immunodeficiency virus 2; experiment: Antiviral activity against HIV2 ROD infected in MT4 cells assessed as inhibition of virus-induced cytopathogenicity by MTT assay; type: functional, organism-based; conditions: Human immunodeficiency virus 2, ISOLATE ROD
[24] = system: Pseudomonas aeruginosa; experiment: Antibacterial activity against Pseudomonas aeruginosa MTCC 424 at 250 ug/ml after 24 hrs by Kirby-Bauer method; type: functional; conditions: MTCC 424, 24 h, read-out: IZ
[25] = Cytotoxicity against human HEL cells assessed as alteration in cell morphology; type: cell-based

Row | Compound | MIC [1] | zone of inhibition at 250 µg/mL [2] | zone of inhibition at 250 µg/mL [3] | zone of inhibition at 250 µg/mL [4] | MIC [5] | MIC [6] | zone of inhibition at 250 µg/mL [7] | EC50 [8] | MIC [9] | MIC [11] | MIC [12] | zone of inhibition at 250 µg/mL [13] | Ratio CC50/IC50 [14] | MIC [16] | Ratio CC50/IC50 [18] | CC50 [19] | zone of inhibition at 250 µg/mL [20] | IC50 [22] | IC50 [23] | zone of inhibition at 250 µg/mL [24] | also measured
1 | COC1=CC(=O)C[C@@H](C)[C@]12Oc1c(Cl)c(OC)cc(OC)c1C2=O [GRISEOFULVIN] | 100 µg/mL (≈ 283 µM) | 28 mm | 24 mm | 24 mm | 100 µg/mL (≈ 283 µM) | 100 µg/mL (≈ 283 µM) |  |  |  |  |  |  |  |  |  |  |  |  |  |  | 
2 | Cc1ccc(-[n+]2noc([O-])c2CN2CCCCC2)cc1 | 250 µg/mL (≈ 915 µM) | 24 mm | 21 mm | 25 mm | 500 µg/mL (≈ 1830 µM) | 250 µg/mL (≈ 915 µM) | 18 mm | > 20 µg/mL | 100 µg/mL (≈ 366 µM) | 250 µg/mL (≈ 915 µM) | 500 µg/mL (≈ 1830 µM) | 16 mm | <1 | 200 µg/mL (≈ 732 µM) | <1 | 18.7 µg/mL (≈ 68.3 µM) | 21 mm | > 18.7 µg/mL | > 18.7 µg/mL | 21 mm | EC50 [10]: > 20 µg/mL; CC50 [15]: 28.5 µg/mL (≈ 104 µM); EC50 [17]: > 20 µg/mL; EC50 [21]: > 20 µg/mL; MCC [25]: 100 µg/mL
3 | [O-]c1on[n+](-c2ccc(Cc3ccc(-[n+]4noc([O-])c4CN4CCCCC4)cc3)cc2)c1CN1CCCCC1 | 500 µg/mL (≈ 942 µM) | 23 mm | 22 mm | 21 mm | 250 µg/mL (≈ 471 µM) | 500 µg/mL (≈ 942 µM) | 20 mm | > 4 µg/mL | 500 µg/mL (≈ 942 µM) | 125 µg/mL (≈ 236 µM) | 250 µg/mL (≈ 471 µM) | 18 mm | <1 | 125 µg/mL (≈ 236 µM) | <1 | 12.1 µg/mL (≈ 22.7 µM) | 16 mm | > 12 µg/mL | > 12 µg/mL | 20 mm | EC50 [10]: 20 µg/mL (≈ 37.7 µM); CC50 [15]: 12.6 µg/mL (≈ 23.7 µM); EC50 [17]: > 4 µg/mL; EC50 [21]: > 4 µg/mL; MCC [25]: ≥ 20 µg/mL
4 | CN1CCN(Cc2c([O-])on[n+]2-c2ccc(Cc3ccc(-[n+]4noc([O-])c4CN4CCN(C)C(c5ccccc5)C4)cc3)cc2)CC1c1ccccc1 (centres undefined) | 500 µg/mL (≈ 701 µM) | 20 mm | 18 mm | 23 mm | 1000 µg/mL (≈ 1400 µM) | 500 µg/mL (≈ 701 µM) | 18 mm | > 20 µg/mL | 100 µg/mL (≈ 140 µM) | 250 µg/mL (≈ 351 µM) | 500 µg/mL (≈ 701 µM) | 16 mm | <1 | 250 µg/mL (≈ 351 µM) | <1 | 14 µg/mL (≈ 19.6 µM) | 21 mm | > 14 µg/mL | > 14 µg/mL | 18 mm | EC50 [10]: > 20 µg/mL; CC50 [15]: 36.8 µg/mL (≈ 51.6 µM); EC50 [17]: > 20 µg/mL; EC50 [21]: > 20 µg/mL; MCC [25]: 100 µg/mL
5 | Cc1ccc(-[n+]2noc([O-])c2CN2CCN(C3=Nc4ccccc4Sc4ccccc43)CC2)cc1 | 1000 µg/mL (≈ 2070 µM) | 18 mm | 21 mm | 18 mm | 1000 µg/mL (≈ 2070 µM) | 1000 µg/mL (≈ 2070 µM) | 16 mm | > 20 µg/mL | 250 µg/mL (≈ 517 µM) | 125 µg/mL (≈ 258 µM) | 200 µg/mL (≈ 414 µM) | 19 mm | <1 | 500 µg/mL (≈ 1030 µM) | <1 | 13.7 µg/mL (≈ 28.2 µM) | 19 mm | > 13.6 µg/mL | > 13.6 µg/mL | 21 mm | EC50 [10]: > 20 µg/mL; CC50 [15]: 14.8 µg/mL (≈ 30.6 µM); EC50 [17]: > 4 µg/mL; EC50 [21]: > 20 µg/mL; MCC [25]: ≥ 20 µg/mL
6 | Cc1ccc(-[n+]2noc([O-])c2CN2CCOCC2)cc1 | 500 µg/mL (≈ 1820 µM) | 18 mm | 23 mm | 21 mm | 1000 µg/mL (≈ 3630 µM) | 500 µg/mL (≈ 1820 µM) | 19 mm | > 20 µg/mL | 200 µg/mL (≈ 726 µM) | 250 µg/mL (≈ 908 µM) | 100 µg/mL (≈ 363 µM) | 21 mm | <1 | 250 µg/mL (≈ 908 µM) | <1 | 16.6 µg/mL (≈ 60.2 µM) | 19 mm | > 16.6 µg/mL | > 16.6 µg/mL | 18 mm | EC50 [10]: > 20 µg/mL; CC50 [15]: 38.4 µg/mL (≈ 139 µM); EC50 [17]: > 20 µg/mL; EC50 [21]: > 20 µg/mL; MCC [25]: 100 µg/mL
7 | O=c1[nH]cnc2c1ncn2[C@H]1CC[C@@H](CO)O1 [DIDANOSINE] |  |  |  |  |  |  |  |  |  |  |  |  | >13 |  | >24 | > 50 µg/mL |  | 2.09 µg/mL (≈ 8.85 µM) | 3.78 µg/mL (≈ 16 µM) |  | 
8 | Nc1ccn([C@H]2CC[C@@H](CO)O2)c(=O)n1 [ZALCITABINE] |  |  |  |  |  |  |  |  |  |  |  |  | >108 |  | >127 | > 20 µg/mL |  | 0.16 µg/mL (≈ 0.758 µM) | 0.19 µg/mL (≈ 0.9 µM) |  | 
9 | Cc1ccc(-[n+]2noc([O-])c2CN2CCN(CCOCCO)CC2)cc1 |  |  |  |  |  |  | 16 mm |  | 500 µg/mL (≈ 1380 µM) | 250 µg/mL (≈ 690 µM) | 200 µg/mL (≈ 552 µM) | 19 mm |  | 500 µg/mL (≈ 1380 µM) |  |  | 16 mm |  |  | 21 mm | 
